Source: US12622898B2, “Methods and compositions for improving bone marrow hematopoietic functions” (SUN YAT-SEN UNIVERSITY, priority 2019, dated 2026)
“Also recorded” adds a separate entry of the source.

Key:
[1] = test system: HSPCs (LT-HSC, ST-HSC, MPP and CD150HSC) in the bone marrow; experiment: ABC294640 treatment of C57BL/6J mice during homeostasis: HSPC numbers and cell cycle; format: in vivo, mouse; conditions: for HSC pool / HSC quiescence (cell cycle analysis of CD150 HSCs): vs vehicle
Excerpt: (§1) B6N.129S6-Sphk1tm1Rlp/J (Sphk1Δ/Δ) and B6N.129S6-Sphk2tm1Rlp/J (Sphk2Δ/Δ) mice were obtained from the Jackson Laboratory. To achieve tissue-specific deletion of Sphk2, the Sphk2^flox/flox mice were crossed with Vav-Cre transgenic mice. Sphk2^flox/flox mice was constructed by Cyagen Biosciences Inc. Briefly, linearized targeting vector was electroporated into embryonic stem (ES) cells and positive clones were identified by Southern blotting and injected into C57BL/6 blastocysts followed by chimera production to obtain germline transmission. The Frt-flanked Neo cassette was subsequently removed by mating with Flpe mice. 2-month-old mice or more than 20-month old for aging we used as indicated. 5 FU (Sigma-Aldrich) was injected once or once a week for survival curve as indicated in the tail vein at 150 μg/g body weight. Sphk2 inhibitor ABC294640 (Target Molecule Corp T6750) and PDK inhibitor Sodium dichloroacetate (DCA) (Selleck Chemicals S8615) were intraperitoneal injected at 25 mg/kg. […] Animals were randomly included in the experiments according to genotyping results as a mix of male and female. All animal experiments were performed according to protocols approved by the institutional animal care and use committee.
(§2) For phenotype analysis and hematopoietic purification, hematopoietic cells were harvested from bone marrow (femur and tibia). For cell surface phenotyping, a lineage cocktail (Lin, phycoerythrin (PE)-Cy5) was used, including anti-CD3 (145-2C11), anti-CD4 (RM4-5), anti-CD8 (53-6.7), anti-Mac-1 (M1/70), anti-Gr1 (RB6-8C5), anti-B220 (RA3-6B2), anti-IgM (11/41) and anti-TER119 (TER-119) (100 ng antibody cocktail per million bone marrow cells, Biolegend). Monoclonal antibodies to SCA1 (D7, Biolegend), c-KIT (2B8, Biolegend), FLK2 (A2F10, Biolegend), CD34 (RAM34, eBioscience), CD48 (HM48-1, Biolegend), CD41 (MWReg30, eBioscience), CD150 (TC15-12F12.2, BioLegend), CD16/32 (93, Biolegend), IL-7R (A7R34, Biolegend) (all used as 50 ng per million bone marrow cells) were also used where indicated.
(§3) For cell cycle, DNA damage, the cells were fixed, permeabilized and stained by anti-Ki67 (16A8, Biolegend).
(§4) Cell sorting and analysis were performed using an Attune NxT analyzer (Thermo Fisher Scientific) or InFlux Cell Sorter (BD Biosciences). Data analysis was performed using FlowJo software.

[2] = test system: HSPCs (LT-HSC, ST-HSC, MPP, CD150HSC); experiment: ABC294640 treatment after 5 FU chemotherapeutic stress: HSPC numbers and ROS; format: in vivo, mouse; conditions: vs vehicle
Excerpt: as §1, §2
(§5) The cells were further incubated with 0.1 ug/uL DAPI (1306, Thermo Scientific) for 30 min at room temperature. For apoptosis and ROS analysis, the cells were stained by AnnexinV or DCFDA (D6883, Sigma-Aldrich).
as §4

[3] = test system: functional HSCs (engrafted donor cells in PB); experiment: Competitive repopulation (serial transplantation) of bone marrow cells from mice after 5 FU and ABC294640 treatment; format: in vivo, mouse; conditions: for increase of reconstitution (engrafted donor cells): at 16 weeks, vs vehicle treated bone marrow cells
Description: For lineage analysis of peripheral blood, monoclonal antibodies to CD45.1 (A20, eBioscience), CD45.2 (104, Biolegend), CD3, B220, Mac-1 and Gr1 were used. 2.0×10^5 CD45.2 bone marrow cells and 2.0×10^5 CD45.1 rescue bone marrow cells were transplanted into lethally irradiated CD45.1 recipients. Adult recipient mice (CD45.1) were irradiated with an Orthovoltage X-ray source delivering approximately in two equal doses of 4.5 Gy at least 3 hours apart. For secondary or tertiary transplantation, bone marrow cells from each recipient were injected into one or two irradiated new recipient mouse (1×10^6 per recipient, depending on the number of recipients) during each round of transplantation. Every 4 weeks after transplantation, peripheral blood was collected from the submandibular vein. Hematopoietic repopulation was measured from donor-derived blood cells (CD45.2) or human-derived blood cells (human CD45).

[4] = Survival of C57BL/6J mice after serial 5 FU challenges with ABC294640 treatment; format: in vivo, mouse; conditions: serial 5 FU every 7 days, ABC294640 every other day; vs control
Excerpt: B6N.129S6-Sphk1tm1Rlp/J (Sphk1Δ/Δ) and B6N.129S6-Sphk2tm1Rlp/J (Sphk2Δ/Δ) mice were obtained from the Jackson Laboratory. To achieve tissue-specific deletion of Sphk2, the Sphk2^flox/flox mice were crossed with Vav-Cre transgenic mice. Sphk2^flox/flox mice was constructed by Cyagen Biosciences Inc. Briefly, linearized targeting vector was electroporated into embryonic stem (ES) cells and positive clones were identified by Southern blotting and injected into C57BL/6 blastocysts followed by chimera production to obtain germline transmission. The Frt-flanked Neo cassette was subsequently removed by mating with Flpe mice. 2-month-old mice or more than 20-month old for aging we used as indicated. 5 FU (Sigma-Aldrich) was injected once or once a week for survival curve as indicated in the tail vein at 150 μg/g body weight. Sphk2 inhibitor ABC294640 (Target Molecule Corp T6750) and PDK inhibitor Sodium dichloroacetate (DCA) (Selleck Chemicals S8615) were intraperitoneal injected at 25 mg/kg. […]
Data are expressed as means±s.d. For all experiments except determination of survival, data were analyzed by Student's t test, and differences were considered statistically significant if P<0.05. The survival of the two groups were analyzed using a log-rank test, and differences were considered statistically significant if P<0.05. […]

[5] = test system: aged HSPCs; experiment: ABC294640 treatment of aged mice to attenuate HSC aging; format: in vivo, mouse
Excerpt: as §1, §2
For lineage analysis of peripheral blood, monoclonal antibodies to CD45.1 (A20, eBioscience), CD45.2 (104, Biolegend), CD3, B220, Mac-1 and Gr1 were used.
as §3, §5
(§6) Bone marrow cells were diluted to the indicated concentration in PBS and were seeded into methylcellulose medium M3434 (StemCell Technologies) for CFU-GM, CFU-GEMM, and BFU-E colony formation assays according to the manufacturer's

[6] = test system: donor derived HSPCs, white blood cells and platelets; experiment: ABC294640 treatment of recipients after bone marrow transplantation: hematopoietic reconstitution; format: in vivo, mouse; conditions: vs vehicle
Excerpt: as §1
2.0×10^5 CD45.2 bone marrow cells and 2.0×10^5 CD45.1 rescue bone marrow cells were transplanted into lethally irradiated CD45.1 recipients. Adult recipient mice (CD45.1) were irradiated with an Orthovoltage X-ray source delivering approximately in two equal doses of 4.5 Gy at least 3 hours apart. For secondary or tertiary transplantation, bone marrow cells from each recipient were injected into one or two irradiated new recipient mouse (1×10^6 per recipient, depending on the number of recipients) during each round of transplantation.
1×10^6 bone marrow cells were transplanted into lethally irradiated recipients, and the recipients were subjected to ABC294640 treatment or vehicle control (FIG. 67).

[7] = test system: Pdk3 expression in HSPCs; experiment: Pdk3 mRNA levels and immunoblotting in HSCs treated with inhibitors; format: cell-based, mouse
Description: (§7) The same number of cells from each population to be analyzed were sorted into PBS with 2% FBS. The cells then were washed with PBS and Lysised by RIPA. Equal amounts of protein extracts were fractionated by 12.5% SDS-PAGE and transferred to a PVDF membrane (IPVH00010, Merck Millipore). After blocked with 5% non-fat milk in Tris-buffered saline with Tween-20 (TBST, pH 7.6) for 1 h at room temperature, the membranes were incubated with primary antibodies anti-phospho-PDHE1-A type I (Ser293) (rabbit, 1:1000, ABS204, Merck Millipore), anti-Sphk2 (rabbit, 1:1000, 17096, Proteintech), anti-PDK3 (rabbit, 1:1000, 4970s, Proteintech), or anti-βactin (rabbit, 1:1000, 2118, Cell Signaling Technology), or with primary antibodies anti-PDK3 (rabbit, 1:1000, 12215, Proteintech), anti-β-actin (rabbit, 1:1000, 4970s, Cell Signaling Technology), overnight at 4° C. and then incubated with secondary antibodies (rabbit, 1:10,000, W401B, Promega) for 1 h at room temperature, which was detected by exposure to x-ray film, or by digital imaging with a charge-coupled device camera system (Odyssey Fc). The images shown are representative of images from at least three experiments.

[8] = test system: human cord blood HSCs (CB-HSCs, CD34+CD38-CD45RA-CD49f+); experiment: Ex vivo culture of human cord blood cells with ABC294640; format: cell-based; conditions: 2-week culture, ABC294640 1 μM; vs vehicle
Description: For phenotype analysis of human cord blood HSCs (CB-HSCs, CD34^+CD38-CD45RA-CD49f^+), cell surface phenotyping, anti-hCD34 (581), anti-hCD38 (HIT2), anti-hCD45RA (HI100) and anti-hCD49f (GOH3) (100 ng antibody cocktail per million cord blood cells, Biolegend) were used. Human cord blood cells (2×10^5) were cultured in 96-round-well plate with Stem Span media (9650, Stem Cell Technologies) supplemented with SCF (10 ng per ml), TPO (20 ng per ml) for two weeks. The culture media was supplemented with vehicle or ABC294640 (1 μM, Target Molecule Corp […]). After culture for two weeks, the culture product was transplanted into irradiated (2Gy) 6-12 weeks old NSG mice via the tail. No mice were excluded unless they died during the 16-week-observations. All animal experiments were performed according to protocols approved by the institutional animal care and use committee.

[9] = test system: human HSCs (reconstitution in NSG mice); experiment: Transplantation of ABC294640 treated human cord blood HSCs into NSG mice; format: in vivo, mouse
Description: Or, in example 14, for lineage analysis of peripheral blood, monoclonal antibodies to anti-hCD45 (HI-30, eBioscience), anti-mCD45 (30-F11, Biolegend), anti-hCD33 (human myeloid cells) (WM53, eBioscience), anti-hCD19 (human B cells) (HIB19, eBioscience), anti-hCD3 (human T cells) (UCHT1, eBioscience) were used. Every 4 weeks after transplantation, peripheral blood was collected from the submandibular vein. Hematopoietic repopulation was measured from donor-derived blood cells (CD45.2) or human-derived blood cells (human CD45). Human cord blood cells (2×10^5) were cultured in 96-round-well plate with Stem Span media (9650, Stem Cell Technologies) supplemented with SCF (10 ng per ml), TPO (20 ng per ml) for two weeks. The culture media was supplemented with vehicle or ABC294640 (1 μM, Target Molecule Corp […]). After culture for two weeks, the culture product was transplanted into irradiated (2Gy) 6-12 weeks old NSG mice via the tail. No mice were excluded unless they died during the 16-week-observations. All animal experiments were performed according to protocols approved by the institutional animal care and use committee.

[10] = test system: white blood cells and platelets; experiment: Recovery of blood cells after 5-fluorouracil or radiation-induced injury; format: in vivo, mouse
[11] = test system: HSPCs from Sphk2 deficient mice; experiment: DCA treatment of Sphk2 deficient and control mice; format: in vivo, mouse; conditions: Sphk2 deficient mice treated for 14 days, vs vehicle treated littermates
Excerpt: as §1
as §2, with “indicated. […]” for “indicated.”

[12] = test system: Pdk3; experiment: Knock-down of Pdk3 in HSCs by siRNA; format: cell-based, mouse
Description: as §6
as §7, with “experiments. […]” for “experiments.”

[13] = ABC294640 25 mg/kg intraperitoneal vs vehicle, bone marrow
[14] = donor-derived lineage cells at 16 weeks after transplantation
[15] = 18-month old mice, treatment for 10 weeks, vs vehicle
[16] = one month after transplantation
[17] = 16 weeks after transplantation in NSG mice
[18] = after stimulation of the chemotherapeutic drug 5-fluorouracil
[19] = after the stimulation of radiation

## O=C(NCc1ccncc1)C12CC3CC(C1)CC(c1ccc(Cl)cc1)(C3)C2 [ABC294640, 3-(4-chloro-phenyl)-adamantane-1-carboxylic acid (pyridin-4-ylmethyl)-amide]
[1]; [13]
  increase of CD150 HSC number: 1.7 fold
  increase of LT-HSC number: 2.1 fold
[1]
  HSC pool: expanded HSPC pool
  HSC quiescence (cell cycle analysis of CD150 HSCs): increased quiescence
[1]; listed as ABC294460
  HSC pool: expands HSC pool
  HSC quiescence (cell cycle analysis of CD150 HSCs): promotes HSC quiescence
[2]; day 14 after 5 FU treatment
  ROS level in CD150 HSCs: markedly reduced
[2]; day 14 post 5 FU
  increase of CD150 HSC number: 2.2 fold
  increase of LT-HSC number: 2.2 fold
  increase of ST-HSC number: 1.6 fold
[3]; [14]
  lymphopoiesis in recipients: markedly promoted lymphopoiesis
  myeloid skewing in recipients: suppressed myeloid skewing
[3]; primary transplantation
  increase of reconstitution (engrafted donor cells): 1.7 fold
[3]; secondary transplantation
  increase of reconstitution (engrafted donor cells): 1.5 fold
[3]; tertiary transplantation
  increase of reconstitution (engrafted donor cells): 1.9 fold
[4]
  survival: significantly prolonged; also recorded: notably increased survival
[5]; [15]
  CD150 HSC quiescence: preserved
  HSPC pool: significantly expanded
  increase of CD41- HSC population: 2.2 fold
  increase of CD150low HSC population: 3.6 fold
  reduction of DNA damage in CD150 HSPCs: 43.7%
  reduction of ROS level in CD150 HSPCs: 63%
[5]; aged mice, vs vehicle
  lymphopoiesis in peripheral blood: markedly increased lymphopoiesis
  myeloid skewing in peripheral blood: suppressed myeloid skewing
[5]; aged mice, vs vehicle treated controls
  colony-forming progenitor frequency in bone marrow cells: significantly higher
[6]; 28 days after transplantation
  increase of platelets in PB: 2.6 fold
  increase of white blood cells in PB: 1.9 fold
[6]; [16]
  increase of donor derived CD150 HSC: 2.2 fold
  increase of donor derived LT-HSC: 2.2 fold
  increase of donor derived ST-HSC: 1.6 fold
[7]
  Pdk3 expression in HSPCs: could upregulate Pdk3 expression
[8]
  increase of human HSC numbers: 1.4 fold
[9]; [17]
  lymphopoiesis (both B and T cells in recipients): improved lymphopoiesis
  multilineage potential: with multilineage potential
  myeloid skewing: reduction in myeloid skewing
[9]; 16 weeks post transplantation in NSG mice, vs vehicle cultured cells
  increase of reconstitution (human-derived blood cells): 1.76 fold
[10]; [18]
  recovery of platelets: significantly accelerated
  recovery of white blood cells: significantly accelerated
[10]; [19]
  recovery of platelets: significantly accelerated
  recovery of white blood cells: significantly accelerated

## O=C([O-])C(Cl)Cl.[Na+] [DCA, Sodium dichloroacetate]
[11]; 25 mg/kg intraperitoneal
  HSPC numbers: reduced HSPC numbers
[11]
  HSC quiescence: compromised HSC quiescence
  ROS levels in HSPCs: increased ROS levels

## CCCCCCCCc1ccc(CCC(N)(CO)CO)cc1 [FTY720]
[7]
  Pdk3 expression in HSPCs: not

## siRNA: siRNAs (GGACCTGCATCATGAACAATG, SEQ ID NO. 1) against mouse Pdk3 cloned into lentivirus pLKO.1-puro vector
[12]; Sphk2 deficient HSCs
  HSPC activity (myeloerythroid-colony-forming progenitors): compromised
[12]; control and Sphk2 deficient HSCs, immunoblotting
  PDH-E1α phosphorylation: reduced
